{"source": "patent US9012505B2", "about": "“Antimicrobial compounds and uses thereof” (priority 2010, dated 2015)", "key": {"exsC": {"system": "exsC", "assay": "Semi-quantitative RT-PCR of T3SS gene expression", "format": "cell-based, Pseudomonas aeruginosa", "details": "MDEA treatment, concentration not given", "procedure": "Bacteria were grown in LB medium supplemented with 10 mM NTA at 37° C. with shaking (250 rpm) overnight were diluted to an OD600 of 0.05 in fresh LB medium and grown under the same conditions to an OD600 of 1.5. RNA samples were isolated using the RNeasy mini kit according to the manufacturer's instructions (Qiagen). The concentration and purity of RNA were determined by spectrometry and agarose gel electrophoresis. RT-PCR analysis was performed using the One-step RT-PCR kit according to the manufacturer's instructions (Qiagen) with the primer pairs RT-C—F/RT-C—R ((5′-[…] (SEQ ID NO: 5), 5′-[…] (SEQ ID NO: 6)).\nThe effect of MDEA on inhibition of T3SS was further analyzed by semi-quantitative RT-PCR. […] The data are consistent with the results based on the T3SS reporter (FIG. 3a)."}, "[1]": {"system": "C. albicans strain SC5314", "assay": "Candida albicans germ tube formation (morphological transition)", "format": "cell-based", "details": "37° C., 3 h, solvent control about 70%", "procedure": "C. albicans strain SC5314 was incubated at 28° C. for overnight with shaking in the GMM medium consisting of 6.7 g of Bacto yeast nitrogen base (Difco) and 0.2% glucose (pH 7.2). C. albicans cells proliferate in yeast form under these conditions. The yeast cells were then diluted 20-fold in fresh GMM medium with or without MDEA. The cells were induced for 3 h at 37° C. Visualization and quantification of germ tube formation were performed using a phase contrast microscope (Olympus BX50) by counting about 400 C. albicans cells. The experiment was repeated twice, and the imaging was done with an Olympus DP70 digital camera.\nCandida albicans is a fungal pathogen responsible for various forms of candiasis ranging from mucosal damages to serious systemic infections. It normally exists as a yeast but can form germ tubes (mycelia) under certain environmental conditions including human body temperature and serum. This morphological transition ability is critical for the fungal pathogen to establish infections. Mutants defective in morphological transitions are avirulent and unable to cause infections (Lo et al., 1997; Braun et al., 2000; Saville et al., 2003; Zheng et al., 2003). […] MDEA represents another structurally different unsaturated fatty acid. To determine its potential inhibitory activity MDEA was added to medium at various concentrations before inoculation of the fungal yeast cells, using methanol as a solvent control. After incubation at 37° C. for 3 h, about 70% of C. albicans cells in solvent control formed germ tubes (FIG. 4). In contrast, less than 30% and 5% of yeast cells could germinate in the presence of 0.5 or 5 μM of MDEA (FIG. 4). When the concentration was increased to 25 μM, the germ tube formation was reduced to 0.17% (FIG. 4)."}, "[2]": {"system": "Xanthomonas campestris strain 8004dF", "assay": "Biofilm assay (Xcc biofilm dispersal, cell aggregates by phase contrast microscopy)", "format": "cell-based", "details": "YEB medium", "procedure": "For analysis of biofilm formation, a single colony of Xanthomonas campestris strain 8004dF (He et al., 2006) was inoculated and grown overnight at 28° C. in 5 ml of YEB medium. The bacterial cells in culture were visualized with a phase contrast microscope (Olympus BX50) and photographs were taken with an Olympus DP70 digital camera.\nGiven its structural similarity to DSF (Wang et al., 2004), which is known to regulate biofilm dispersal (Dow et al., 2003; He et al., 2006), MDEA was tested for its ability to promote Xcc biofilm dispersion. The Xcc DSF mutant ΔrpfF, which formed extensive cell aggregates (biofilm) in YEB medium (FIG. 2a), was used in this assay."}, "[3]": {"system": "PexsCEBA-lacZ (T3SS reporter strain)", "assay": "T3SS reporter PexsCEBA-lacZ β-galactosidase activity", "format": "cell-based, Pseudomonas aeruginosa", "details": "LB medium with 10 mM NTA, OD600 about 1.5", "description": "The promoter of exsCEBA was amplified by PCR using the primer pairs pC-F/pC-R ((5′-[…] (SEQ ID NO: 3)/5′-ggggcgcctcctaaagctc (SEQ ID NO: 4)), and cloned into the integration vector mini-CTX-lacZ (Zhou et al., 2007; Hoang et al., 2000; Becher and Schweizer, 2000). The construct was introduced into E. coli S17-1(λpir) and then integrated into the chromosome of P. aeruginosa as described previously (Hoang et al., 2000). The P. aeruginosa transconjugants were then selected on LB agar plates containing 100 μg/ml tetracycline and used as the T3SS reporter strain.\nFor determination of the inhibitory activity against T3SS, MDEA was added to the LB medium supplemented with 10 mM NTA before inoculation of the T3SS reporter strain. After incubation at 37° C. till OD600 reached about 1.5, the bacterial cells were harvested by centrifugation to measure the β-galactosidase activities following the method previously described (Jeffrey, 1992).\nType III secretion system (T3SS) is a major virulence determinant conserved in many Gram-negative bacterial pathogens. To test the ability of MDEA on regulation of T3SS gene expression in Pseudomonas aeruginosa, the T3SS reporter construct PexsCEBA-lacZ (Zhou et al., 2007) was used. The promoter PexsCEBA directs the expression of the T3SS master regulator ExsA, which positively controls the expression of all T3SS genes in P. aeruginosa (Yahr and Wolfgang, 2006; Frank, 1997)."}}, "note": "“Also recorded” adds a separate entry of the source.", "data": [{"smiles": "CC(C)CCCCC=CC/C=C\\C(=O)O", "note": "[MDEA, cis-11-methyldodeca-2,5-dienoic acid]", "values": [{"measurement": "reduction in transcriptional expression of exsC", "setting": "exsC", "value": "about 60%"}, {"measurement": "yeast cells that germinate (germ tube formation)", "setting": "[1]; 0.5 μM MDEA", "value": "less than 30%"}, {"measurement": "yeast cells that germinate (germ tube formation)", "setting": "[1]; 5 μM MDEA", "value": "< 5", "unit": "%"}, {"measurement": "germ tube formation", "setting": "[1]; 25 μM MDEA", "value": 0.17, "unit": "%"}, {"measurement": "Effect on cell aggregates (biofilm) of Xcc DSF-deficient mutant", "setting": "[2]; 1 μM MDEA", "value": "inhibited 8004dF biofilm formation; also recorded: eliminated most of the cell aggregates"}, {"measurement": "Effect on cell aggregates (biofilm) of Xcc DSF-deficient mutant", "setting": "[2]; 5 μM MDEA", "value": "inhibited 8004dF biofilm formation; also recorded: all the cell aggregates disappeared"}, {"measurement": "reduction of PexsCEBA-lacZ activity", "setting": "[3]; 5 μM MDEA", "value": 64.1, "unit": "%"}, {"measurement": "reduction of PexsCEBA-lacZ activity", "setting": "[3]; 10 μM MDEA", "value": 68.5, "unit": "%"}, {"measurement": "reduction of PexsCEBA-lacZ activity", "setting": "[3]; 25 μM MDEA", "value": 74.4, "unit": "%"}]}]}
